Measurements taken from patent US11261200B2, “Heteroaryltrifluoroborate compounds for the treatment of mycobacterial infections” (The Global Alliance for TB Drug Development, Inc., priority 2016, dated 2022).
Converted amounts (≈) assume the structure as drawn. Read-outs that look alike come from different tables or passages of the source.

Legend:
[1] = system: Mtb; details: standard culture conditions; cited from earlier work
[2] = system: Vero cells; assay: Mammalian cell toxicity assay (CellTiter 96 Non-Radioactive Cell Proliferation Assay); assay type: cell-based; details: read-out: Vero cell IC50
[3] = system: M tb H37Rv; assay: microbe, parasite or virus in culture; assay type: cell-based, Mycobacterium tuberculosis; details: pH 5.2
[4] = system: MtbH37Rv pncA-knock out strain; assay: microbe, parasite or virus in culture; assay type: cell-based, Mycobacterium tuberculosis; details: pH 6.7
[5] = system: M tb H37Rv; assay: microbe, parasite or virus in culture; assay type: cell-based, Mycobacterium tuberculosis; details: pH 6.7
[6] = system: Mtb H37Rv-PH-GFP; assay type: cell-based, Mycobacterium tuberculosis; details: acidic medium (pH 5.2), FIG. 1-3
[7] = system: MtbH37Rv pncA-knock out strain; assay: microbe, parasite or virus in culture; assay type: cell-based, Mycobacterium tuberculosis; details: for MIC: pH 5.2
[8] = Chlorocebus sabaeus, Table 1, Vero cells, 72 hours
[9] = Mycobacterium tuberculosis, H37RV, read-out: MIC 5.2 WT
[10] = Mycobacterium tuberculosis, read-out: MIC 6.7 KO
[11] = Mycobacterium tuberculosis, H37RV, read-out: MIC 6.7 WT
[12] = Mycobacterium tuberculosis, read-out: MIC 5.2 KO
[13] = Chlorocebus sabaeus, Vero, 72 h

SMILES | MIC [3, 9] | MIC [4, 10] | MIC [5, 11] | MIC [7, 12] | IC50 ([2]; Table 1, Vero cells, 72 hours) | MIC ([3]; read-out: MIC5.2WT) | MIC ([4]; read-out: MIC6.7KO) | MIC ([5]; read-out: MIC6.7WT) | MIC ([7]; read-out: MIC5.2KO) | other results
NC(=O)c1cnccn1 [Pyrazinamide (PZA), Pyrazinamide, reference compound] | 100 µM (≈ 12.3 µg/mL) | > 400 µM | > 400 µM | > 400 µM | – | – | – | – | – | minimum inhibitory concentration against Mtb [1]: > 200 µM; IC50 [2, 8]: > 100 µM; IC50 ([2]; Table 2, Vero cells, 72 hours): > 100 µM; MIC ([3]; Mycobacterium tuberculosis, H37RV, read-out: MIC5.2WT): 100 µM (≈ 12.3 µg/mL); MIC ([3]; Mycobacterium tuberculosis, H37RV, read-out: MIC against Mtb at pH 5.2): 100 to 200 µM (≈ 12.3 to 24.6 µg/mL); MIC ([4]; Mycobacterium tuberculosis, read-out: MIC6.7KO): > 400 µM; MIC ([5]; Mycobacterium tuberculosis, H37RV, read-out: MIC6.7WT): > 400 µM; MIC ([5]; Mycobacterium tuberculosis, H37RV, read-out: MIC at pH 6.7): > 400 µM; change in internal pH of Mtb [6]: lowering internal pH of Mtb; MIC ([7]; Mycobacterium tuberculosis, read-out: MIC5.2KO): > 400 µM; activity against pncA KO strain of Mtb ([7]; result in words): not active against an Mtb strain whose pncA is knocked out
Fc1cncc([B-](F)(F)F)c1.[K+] [Compound 4-2, [trifluoro-(5-fluoro-3-pyridyl)-boranyl] potassium(1+)] | – | – | – | – | > 100 µM | 50 µM | 100 µM | 200 µM | 25 µM | –
NNC(=O)c1ccncc1 [Isoniazid (INH), Isoniazid] | – | – | – | – | – | – | – | – | – | change in internal pH of Mtb [6]: does not have any effect on internal pH
F[B-](F)(F)c1cncc(C(F)(F)F)c1 [Compound 12-3, [trifluoro-[5-(trifluoromethyl)-3-pyridyl]-boranyl]potassium(1+)] | 100 µM | > 200 µM | > 200 µM | 100 µM | – | – | – | – | – | IC50 [2, 8]: > 100 µM
COc1cncc([B-](F)(F)F)n1.[K+] [Compound 2-5, [trifluoro-(6-methoxypyrazin-2-yl)-boranyl]potassium(1+)] | – | – | – | – | > 100 µM | 50 µM | >200 µM | >200 µM | 25 µM | –
FB(F)c1cncc(N2CCCC2)n1 [Compound 7-5, potassium; difluoro-(6-pyrrolidin-1-ylpyrazin-2-yl)borane; fluoride] | 100 µM | > 200 µM | > 200 µM | 50 µM | – | – | – | – | – | IC50 [2, 13]: > 100 µM
F[B-](F)(F)c1cncc(Cl)c1.[K+] [Compound 5-2, [(5-chloro-3-pyridyl)-trifluoro-boranyl] potassium(1+)] | – | – | – | – | > 100 µM | 50 µM | 100 µM | 100 µM | 50 µM | –
N#Cc1cncc([B-](F)(F)F)c1 [Compound 11-2, potassium (5-cyanopyridin-3-yl)trifluoroborate] | 100 µM | > 200 µM | > 200 µM | 100 µM | – | – | – | – | – | IC50 [2, 13]: > 100 µM
